Laboratory results: US10604487B2, “Pyridinol derivative or pharmaceutically acceptable salt thereof, and pharmaceutical composition containing same as active ingredient” (Research Cooperation Foundation of Yeungnam University, priority 2016, dated 2020)
Read-outs that look alike come from different tables or passages of the source.

Key:
[1] = tested on: TNF-α-induced adhesion of monocytes to intestinal epithelial cells; experiment: Inhibitory activity against TNF-α-induced adhesion of monocytes (U937) to intestinal epithelial cells (HT-29); format: cell-based, human; settings: Homo sapiens
Procedure: HT-29 human colorectal cancer-derived epithelial cells and U937 human-derived monocytic cells were cultured in an RPMI 1640 medium containing 10% FBS and 1% penicillin/streptomycin (PS) at 37° C. under a condition of 5% CO2, and when the cells were grown to 80% or more in a culture flask, they were subcultured in a ratio of 1:3 to be used in this test. The HT-29 cells were cultured in a 24-well plate at a concentration of 2×10^5 cells/cm2, and then the medium only containing 1% FBS and 1% PS was pretreated with a test drug for 1 hour. Afterward, BCECF-loaded U937 cells by being treated with 10 μg/mL of BCECF-AM at 37° C. for 30 minutes and 10 ng/mL of TNF-α reacted with the HT-29 cells previously treated with the test drug at 37° C. for 3 hours. After the reaction, the medium was removed, and then the cells were washed with PBS twice to remove U937 cells that were not adhered. In a subsequent step, for cell lysis, 0.1% Triton X-100 (0.1 M Tris) was treated to allow a reaction at room temperature for 30 minutes, and then fluorescence was measured using a Fluostar optima microplate reader (BMG LABTECH, Germany) to quantify the cells (Carvalho et al., 1996; Thapa et al., 2008).

[2] = Cytotoxicity test (MTT), U937; format: cell-based; settings: human, U937, 48 h; for viability at 48 h, 0.01 µM / viability at 48 h, 0.1 µM / viability at 48 h, 1 µM / viability at 48 h, 10 µM / viability at 48 h, 100 µM: U937 cells (monocytic blood cancer-derived cell line), read-out: Cell viability (% of control); for IC50 at 48 h: U937 cells
Procedure: (§1) The human colorectal cancer cell line HT-29 and the monocytic blood cancer-derived cell line U937 were cultured in a RPMI 1640 medium containing 10% FBS and 1% penicillin/streptomycin (PS) at 37° C. under a condition of 5% CO2, and when the cells used herein were grown to 80% or more, they were subcultured at a ratio of 1:3.
(§2) Each type of cells were cultured in a 96 well plate at a concentration of 1×10^5 cells/cm2, treated with a test compound by concentration in a medium only containing 1% FBS and 1% PS at 37° C. under a condition of 5% CO2 for 48 hours and reacted with 5 mg/mL of a 3-[4,5-dimethylthiazol-2-yl]-2,5-diphenyltetrazolium bromide (MTT) reagent for 4 hours, and then the medium was completely removed, the cells were treated with DMSO, formazan crystals were dissolved for 30 minutes, and then absorbance was measured at 540 nm.

[3] = Cytotoxicity test (MTT), HT-29; format: cell-based; settings: human, HT-29, 48 h; for viability at 48 h, 0.01 µM / viability at 48 h, 0.1 µM / viability at 48 h, 1 µM / viability at 48 h, 10 µM / viability at 48 h, 100 µM: HT-29 cells (colorectal cancer cell line), read-out: Cell viability (% of control); for IC50 at 48 h: HT-29 cells
Procedure: as §1, §2

[4] = 1 μM test drug, HT-29/U937 adhesion, 10 ng/mL TNF-α, read-out: Inhibitory activity (%)
[5] = read-out: IC50 (μM), cytotoxicity

Structure (SMILES)	inhibition at 1 µM [1, 4] [%]	viability at 48 h, 0.01 µM [2] [%]	viability at 48 h, 0.1 µM [2] [%]	viability at 48 h, 1 µM [2] [%]	viability at 48 h, 10 µM [2] [%]	viability at 48 h, 100 µM [2] [%]	IC50 at 48 h [2] [µM]	viability at 48 h, 0.01 µM [3] [%]	viability at 48 h, 0.1 µM [3] [%]	viability at 48 h, 1 µM [3] [%]	viability at 48 h, 10 µM [3] [%]	viability at 48 h, 100 µM [3] [%]	IC50 at 48 h [3, 5] [µM]	IC50 at 48 h ([3]; text of b533, read-out: cytotoxicity IC50 for HT-29) [µM]	inhibition at 1 µM ([1]; 1 μM, Table 8, read-out: 1 μM concentration inhibitory activity) [%]	IC50 ([1]; HT-29/U937 adhesion, TNF-α-induced, read-out: IC50 (adhesion inhibition)) [µM]
Cc1nc(NC(=O)Nc2ccc(Cl)cc2)c(C)c(C)c1O [Compound 16-3, 1-(4-Chlorophenyl)-3-(5-hydroxy-3,4,6-trimethylpyridin-2-yl)urea]	7.7	89.4 ± 2.7	89.7 ± 3.1	81 ± 3.1	81 ± 2.2	66 ± 0.1	> 100	104 ± 6.1	102 ± 6.4	103 ± 11.1	89.3 ± 4.8	69.2 ± 6.1	> 100			
Cc1ccc(S(=O)(=O)Nc2nc(C)c(O)c(C)c2C)cc1 [Compound 22-2, N-(5-hydroxy-3,4,6-trimethylpyridin-2-yl)-4-methylbenzenesulfonamide]	42.1	96.6 ± 1.6	94.5 ± 6.3	96.1 ± 3.8	90.5 ± 1.7	60.9 ± 1.7	> 100	77.1 ± 3	76.9 ± 4	73.8 ± 5.8	71.5 ± 4.6	62.8 ± 0.5	> 100			
Cc1nc(NS(=O)(=O)c2ccc([N+](=O)[O-])cc2)c(C)c(C)c1O [Compound 22-4, N-(5-hydroxy-3,4,6-trimethylpyridin-2-yl)-4-nitrobenzenesulfonamide]	-2.3	95.2 ± 4.6	93.3 ± 0.8	80.2 ± 11.7	84.7 ± 1.7	70.6 ± 0.4	> 100	96.6 ± 1.3	97.8 ± 2.4	96.3 ± 1.7	85.4 ± 6.7	64.8 ± 7.1	> 100			
CCCCNC(=S)Nc1nc(C)c(O)c(C)c1C [Compound 18-1, 1-butyl-3-(5-hydroxy-3,4,6-trimethylpyridin-2-yl)thiourea]	-19.9	95.4 ± 0.6	94.9 ± 1.2	92.9 ± 0.6	91 ± 0.9	55 ± 1.1	> 100	93.5 ± 3.4	95.2 ± 1.7	96.9 ± 1.4	96.5 ± 2.3	60.3 ± 0.5	> 100			
COC(=O)Nc1nc(C)c(O)c(C)c1C [Compound 20-1, methyl (5-hydroxy-3,4,6-trimethylpyridin-2-yl)carbamate]	9.8	97.5 ± 1.6	95.1 ± 5.3	93.7 ± 1.2	80.9 ± 12.8	89.6 ± 1	> 100	89.7 ± 6.3	84.9 ± 1.9	85 ± 3.4	82.6 ± 1.3	73.7 ± 4.5	> 100			
Cc1nc(NC(=S)Nc2ccccc2)c(C)c(C)c1O [Compound 18-4, 1-(5-hydroxy-3,4,6-trimethylpyridin-2-yl)-3-phenylthiourea]	49.7	99.5 ± 2.1	101 ± 1.9	96.7 ± 1.7	96.1 ± 1.4	70.6 ± 0.8	> 100	96.6 ± 2.1	97 ± 4.4	99 ± 5	96.6 ± 2.4	76 ± 4.9	> 100			
CCCNC(=O)Nc1nc(C)c(O)c(C)c1C [Compound 16-1, 1-(5-hydroxy-3,4,6-trimethylpyridin-2-yl)-3-propylurea]	18.2	89.1 ± 3.5	88.4 ± 3.5	90 ± 4.8	75.2 ± 0.9	44.2 ± 0.7	15.4	94.9 ± 6.5	84.4 ± 7.6	84.4 ± 4.2	70.9 ± 6.2	42.8 ± 2.7		64.6		
Cc1nc(NC(=O)NS(=O)(=O)c2ccccc2)c(C)c(C)c1O [Compound 16-6, N-((5-hydroxy-3,4,6-trimethylpyridin-2-yl)carbamoyl)benzenesulfonamide]	17.5	91.6 ± 2.6	94.3 ± 2.6	85.8 ± 2.7	83.5 ± 1.1	84.9 ± 2	> 100	90 ± 3.5	85.4 ± 0.9	76 ± 7.2	77.9 ± 3.5	53.6 ± 2.5	> 100			
Cc1nc(NS(=O)(=O)c2cccc3ccccc23)c(C)c(C)c1O [Compound 22-5, N-(5-hydroxy-3,4,6-trimethylpyridin-2-yl)naphthalene-1-sulfonamide]		102 ± 5.4	93.4 ± 1.2	92.6 ± 0.9	85.1 ± 3.1	62.5 ± 2	> 100	95.2 ± 3.3	86.7 ± 6.5	87.8 ± 3.2	89.1 ± 3.5	88.8 ± 1.2	> 100		80.6	0.23
CCCCOC(=O)Nc1nc(C)c(O)c(C)c1C [Compound 20-2, butyl (5-hydroxy-3,4,6-trimethylpyridin-2-yl)carbamate]	26.9	87.4 ± 1.3	84.4 ± 2.3	84.6 ± 2	80.7 ± 0.8	74.4 ± 3.8	> 100	102 ± 1.4	102 ± 3.2	98.1 ± 3.4	98.3 ± 3.8	67.6 ± 1.9	> 100			
Cc1nc(NC(=S)NC2CCCCC2)c(C)c(C)c1O [Compound 18-3, 1-cyclohexyl-3-(5-hydroxy-3,4,6-trimethylpyridin-2-yl)thiourea]	≥ 50	88.8 ± 7	93.1 ± 1	97.6 ± 1.3	87.7 ± 2	84.3 ± 1.5	> 100	90.9 ± 5.1	80.5 ± 10.4	66.8 ± 6.2	67 ± 5	51.3 ± 6.7	> 100			
Cc1nc(NC(=S)Nc2ccc(Cl)cc2)c(C)c(C)c1O [Compound 18-6, 1-(4-chlorophenyl)-3-(5-hydroxy-3,4,6-trimethylpyridin-2-yl)thiourea]	≥ 50	99.6 ± 0.5	96.8 ± 1.9	91.6 ± 2.6	86.4 ± 1.7	80.7 ± 2.5	> 100	95.2 ± 3.2	86.6 ± 4.9	83.6 ± 3.3	72.8 ± 2.8	65.3 ± 1.9	> 100			
